# From patent publication US10800772B2 (Gilead Sciences, Inc., priority 2016, dated 2020)
# Like-named read-outs stand apart in the source and are kept apart here.
# Legend:
# Assay type in all cases: cell-based, HIV-1
# HIV-IIIb (wildtype) = assay: Antiviral assay in MT4 cells, HIV-IIIb wildtype; details: read-out: WT EC50
# Method: (§1) Antiviral Assay in MT4 Cells
# (§2) For the antiviral assay, 0.4 μL of 189X test concentration of 3-fold serially diluted compound in DMSO was added to 40 μL of cell growth medium (RPMI 1640, 10% FBS, 1% Penicillin-Streptomycin, 1% L-Glutamine, 1% HEPES) in each well of 384-well plate (10 concentrations) in quadruplicate.
# (§3) 1 mL Aliquots of MT4 cells were pre-infected for 3 hours at 37° C. with 25 μL of cell growth medium (mock-infected) or a fresh 1:250 dilution of an HIV-IIIb (wildtype, IN T174I BT, or IN T174I DE) concentrated ABI stock (0.004 m.o.i.). IN T174I BT virus was derived from viral breakthrough (BT) assay as described in Mulato, A.; Hansen, D.; Thielen, A.; Porter, D.; Stepan, G.; White, K.; Daeumer, M.; Cihlar, T.; Yant, S. R. AIDS Research and Human Retrovirues, July 2016, ahead of print. doi:10.1089/aid.2016.0071. IN T174I DE virus was derived from serial passaging with dose escalation (DE) of test compound. Infected and uninfected cells were diluted in cell growth media and 35 μL (2000 cells) was added to each well of the assay plates.
# (§4) Assay plates were then maintained in a humidified, 5% CO2 incubator at 37° C. After 5 days of incubation, 25 μl of 2× concentrated CellTiter-Glo™ Reagent (catalog # G7573, Promega Biosciences, Inc., Madison, Wis.) was added to each well of the assay plate. Cell lysis was carried out by incubating at room temperature for 10 minutes and then chemiluminescence was read using an Envision plate reader (PerkinElmer). EC50 values were calculated as the compound concentration that caused a 50% […] in luminescence signal, a measure of HIV-1 replication.
# HIV-IIIb IN T174I BT = assay: Antiviral assay in MT4 cells, HIV-IIIb IN T174I BT virus (from viral breakthrough); details: Human immunodeficiency virus 1, IIIB, MT4, 120 h, read-out: T174I BT EC50, MT4 cells, HIV-IIIb IN T174I BT (viral breakthrough), 5 days, CellTiter-Glo
# Method: as §1, §2, §3, §4
# HIV-IIIb IN T174I DE = assay: Antiviral assay in MT4 cells, HIV-IIIb IN T174I DE virus (from dose escalation passaging); details: Human immunodeficiency virus 1, IIIB, MT4, 120 h, read-out: T174I DE EC50, MT4 cells, HIV-IIIb IN T174I DE (dose escalation), 5 days, CellTiter-Glo
# Method: as §1, §2, §3, §4
# [1] = Human immunodeficiency virus 1, IIIB, MT4, 120 h
# [2] = Human immunodeficiency virus 1, 120 h, MT4 cells, HIV-IIIb wildtype, 5 days, CellTiter-Glo
SMILES,EC50 (HIV-IIIb (wildtype); [1]) [nM],EC50 (HIV-IIIb IN T174I BT) [nM],EC50 (HIV-IIIb IN T174I DE) [nM],EC50 (HIV-IIIb (wildtype); [2]) [nM]
CCOC(=O)N1CCC(c2nn(C)c3ccc(-c4nc5cc(C)c([C@H](OC(C)(C)C)C(=O)O)c(-c6ccc(Cl)cc6)c5s4)cc23)CC1 [Compound 24],16,769,1090,–
"Cc1cc2nc(-c3ccc4c(c3)c(C3CCN(C5CN(C(=O)OC(C)(C)C)C5)CC3)nn4C)sc2c(-c2ccc(Cl)cc2)c1[C@H](OC(C)(C)C)C(=O)O [Compound 28, (S)-2-(tert-butoxy)-2-(2-(3-(1-(1-(tert-butoxycarbonyl)azetidin-3-yl)piperidin-4-yl)-1-methyl-1H-indazol-5-yl)-7-(4-chlorophenyl)-5-methylbenzo[d]thiazol-6-yl)acetic Acid]",73,1800,2260,–
"Cc1cc2nc(-c3ccc4c(c3)c(C3CCN(C5CNC5)CC3)nn4C)sc2c(-c2ccc(Cl)cc2)c1[C@H](OC(C)(C)C)C(=O)O [Compound 29, (S)-2-(2-(3-(1-(azetidin-3-yl)piperidin-4-yl)-1-methyl-1H-indazol-5-yl)-7-(4-chlorophenyl)-5-methylbenzo[d]thiazol-6-yl)-2-(tert-butoxy)acetic acid]",–,646,823,52
"CC(=O)N1CC(N2CCC(c3nn(C)c4ccc(-c5nc6cc(C)c([C@H](OC(C)(C)C)C(=O)O)c(-c7ccc(Cl)cc7)c6s5)cc34)CC2)C1 [Compound 30, (S)-2-(2-(3-(1-(1-acetylazetidin-3-yl)piperidin-4-yl)-1-methyl-1H-indazol-5-yl)-7-(4-chlorophenyl)-5-methylbenzo[d]thiazol-6-yl)-2-(tert-butoxy)acetic acid]",12,111,187,–
"Cc1cc2nc(-c3ccc4c(c3)c(C3CCN(C5CN(C)C5)CC3)nn4C)sc2c(-c2ccc(Cl)cc2)c1[C@H](OC(C)(C)C)C(=O)O [Compound 31, (S)-2-(tert-butoxy)-2-(7-(4-chlorophenyl)-5-methyl-2-(1-methyl-3-(1-(1-methylazetidin-3-yl)piperidin-4-yl)-1H-indazol-5-yl)benzo[d]thiazol-6-yl)acetic acid]",12,138,236,–
"CC(=O)N1CC(N2CCC(c3nn(CCN(C)C)c4ccc(-c5nc6cc(C)c([C@H](OC(C)(C)C)C(=O)O)c(-c7ccc(Cl)cc7)c6s5)cc34)CC2)C1 [Compound 33, (S)-2-(2-(3-(1-(1-acetylazetidin-3-yl)piperidin-4-yl)-1-(2-(dimethylamino)ethyl)-1H-indazol-5-yl)-7-(4-chlorophenyl)-5-methylbenzo[d]thiazol-6-yl)-2-(tert-butoxy)acetic acid]",5,587,1020,–
"Cc1cc2nc(-c3ccc4[nH]nc(C5CCN(C6COC6)CC5)c4c3)sc2c(-c2ccc(Cl)cc2)c1[C@H](OC(C)(C)C)C(=O)O [Compound 34, (S)-2-(tert-butoxy)-2-(7-(4-chlorophenyl)-5-methyl-2-(3-(1-(oxetan-3-yl)piperidin-4-yl)-1H-indazol-5-yl)benzo[d]thiazol-6-yl)acetic acid]",–,968,1170,31
"CCn1nc(C2CCN(C3COC3)CC2)c2cc(-c3nc4cc(C)c([C@H](OC(C)(C)C)C(=O)O)c(-c5ccc(Cl)cc5)c4s3)ccc21 [Compound 35, (S)-2-(tert-butoxy)-2-(7-(4-chlorophenyl)-2-(1-ethyl-3-(1-(oxetan-3-yl)piperidin-4-yl)-1H-indazol-5-yl)-5-methylbenzo[d]thiazol-6-yl)acetic acid]",4,84,238,–
"CCn1nc2ccc(-c3nc4cc(C)c([C@H](OC(C)(C)C)C(=O)O)c(-c5ccc(Cl)cc5)c4s3)cc2c1C1CCN(C2COC2)CC1 [Compound 36, (S)-2-(tert-butoxy)-2-(7-(4-chlorophenyl)-2-(2-ethyl-3-(1-(oxetan-3-yl)piperidin-4-yl)-2H-indazol-5-yl)-5-methylbenzo[d]thiazol-6-yl)acetic acid]",14,1080,3580,–
"Cc1cc2nc(-c3ccc4c(c3)c(C3CCN(C5COC5)CC3)nn4C3CC3)sc2c(-c2ccc(Cl)cc2)c1[C@H](OC(C)(C)C)C(=O)O [Compound 38, (S)-2-(tert-butoxy)-2-(7-(4-chlorophenyl)-2-(1-cyclopropyl-3-(1-(oxetan-3-yl)piperidin-4-yl)-1H-indazol-5-yl)-5-methylbenzo[d]thiazol-6-yl)acetic acid]",8,293,349,–
"Cc1cc2nc(-c3ccc4c(c3)c(C3CCN(C5COC5)CC3)nn4C(F)F)sc2c(-c2ccc(Cl)cc2)c1[C@H](OC(C)(C)C)C(=O)O [Compound 39, (S)-2-(tert-butoxy)-2-(7-(4-chlorophenyl)-2-(1-(difluoromethyl)-3-(1-(oxetan-3-yl)piperidin-4-yl)-1H-indazol-5-yl)-5-methylbenzo[d]thiazol-6-yl)acetic acid]",13,651,1150,–
"[2H]C([2H])([2H])n1nc(C2CCN(C3COC3)CC2)c2cc(-c3nc4cc(C)c([C@H](OC(C)(C)C)C(=O)O)c(-c5ccc(Cl)cc5)c4s3)ccc21 [Compound 40, (S)-2-(tert-butoxy)-2-(7-(4-chlorophenyl)-5-methyl-2-(1-(methyl-d3)-3-(1-(oxetan-3-yl)piperidin-4-yl)-1H-indazol-5-yl)benzo[d]thiazol-6-yl)acetic acid]",10,257,518,–
"Cc1cc2nc(-c3ccc4c(c3)c(C3CCN(C5COC5)CC3)nn4CC(F)(F)F)sc2c(-c2ccc(Cl)cc2)c1[C@H](OC(C)(C)C)C(=O)O [Compound 41, (S)-2-(tert-butoxy)-2-(7-(4-chlorophenyl)-5-methyl-2-(3-(1-(oxetan-3-yl)piperidin-4-yl)-1-(2,2,2-trifluoroethyl)-1H-indazol-5-yl)benzo[d]thiazol-6-yl)acetic acid]",3830,4980,5310,–
"Cc1cc2nc(-c3ccc4c(c3)c(C3CCN(C5COC5)CC3)nn4CC(F)F)sc2c(-c2ccc(Cl)cc2)c1[C@H](OC(C)(C)C)C(=O)O [Compound 42, (S)-2-(tert-butoxy)-2-(7-(4-chlorophenyl)-2-(1-(2,2-difluoroethyl)-3-(1-(oxetan-3-yl)piperidin-4-yl)-1H-indazol-5-yl)-5-methylbenzo[d]thiazol-6-yl)acetic acid]",5040,5710,5710,–
"CC(=O)N1CC(N2CCC(c3nn(C(F)F)c4ccc(-c5nc6cc(C)c([C@H](OC(C)(C)C)C(=O)O)c(-c7ccc(Cl)cc7)c6s5)cc34)CC2)C1 [Compound 43, (S)-2-(2-(3-(1-(1-acetylazetidin-3-yl)piperidin-4-yl)-1-(difluoromethyl)-1H-indazol-5-yl)-7-(4-chlorophenyl)-5-methylbenzo[d]thiazol-6-yl)-2-(tert-butoxy)acetic acid]",26,313,409,–
"COC(=O)N1CC(N2CCC(c3nn(C(F)F)c4ccc(-c5nc6cc(C)c([C@H](OC(C)(C)C)C(=O)O)c(-c7ccc(Cl)cc7)c6s5)cc34)CC2)C1 [Compound 44, (S)-2-(tert-butoxy)-2-(7-(4-chlorophenyl)-2-(1-(difluoromethyl)-3-(1-(1-(methoxycarbonyl)azetidin-3-yl)piperidin-4-yl)-1H-indazol-5-yl)-5-methylbenzo[d]thiazol-6-yl)acetic acid]",30,600,776,–
"CC(=O)N1CC(N2CCC(c3nn(C4CC4)c4ccc(-c5nc6cc(C)c([C@H](OC(C)(C)C)C(=O)O)c(-c7ccc(Cl)cc7)c6s5)cc34)CC2)C1 [Compound 45, (S)-2-(2-(3-(1-(1-acetylazetidin-3-yl)piperidin-4-yl)-1-cyclopropyl-1H-indazol-5-yl)-7-(4-chlorophenyl)-5-methylbenzo[d]thiazol-6-yl)-2-(tert-butoxy)acetic Acid]",17,174,287,–
"COC(=O)N1CC(N2CCC(c3nn(C4CC4)c4ccc(-c5nc6cc(C)c([C@H](OC(C)(C)C)C(=O)O)c(-c7ccc(Cl)cc7)c6s5)cc34)CC2)C1 [Compound 46, (S)-2-(tert-butoxy)-2-(7-(4-chlorophenyl)-2-(1-cyclopropyl-3-(1-(1-(methoxycarbonyl)azetidin-3-yl)piperidin-4-yl)-1H-indazol-5-yl)-5-methylbenzo[d]thiazol-6-yl)acetic acid]",17,352,716,–
